From patent US8440649B2 (priority 2009, dated 2013) come the findings set out here.

The subject of data set [1] is SARS CoV. The note with it: Vero E6 cells.
The test system of data set [2] is SARS CoV. The data set can be described thus: in vitro. As to conditions: African green monkey.
The next data set can be described thus: in vitro. The note with it: African green monkey.
Data set [3] concerns SARS CoV. Nature of the data set: microbe, parasite or virus in culture. The note with it: Severe acute respiratory syndrome coronavirus, Vero C1008, read-out: Anti-SARS CoV IC50.

As for `COc1cc2c3c(c4cc(OC)c(OC)cc4c2cc1OC)CN1CCCC1C3` (stereo not drawn) [Compound 1], in the data set with SARS CoV [1], the “reduction of levels of CPEs caused by SARS CoV infection (in words)” value (“reduction of levels of CPEs caused” for short) was “effectively reduced”. Besides, the “cytotoxicity per se (in words)” value in the data set on Vero E6 cells is “low cytotoxicity”. Further, the selectivity ratio in the data set on SARS CoV [2] was found to be 23.3. In the data set “in vitro”, the CC50 is 420 nM. The concentration for half-maximal inhibition (IC50) in the data set on SARS CoV [3] worked out at 18 nM.

As to `COc1cc2c3c(c4cc(OC)c(OC)cc4c2cc1OC)CN1CCCCC1C3` (stereo not drawn) [Compound 11], the “reduction of levels of CPEs caused” value in the data set on SARS CoV [1] is on record as “effectively reduced”. Also, the “cytotoxicity per se (in words)” value in the data set on Vero E6 cells is given as “low cytotoxicity”.

On to `COc1cc2c3c(c4cc(OC)c(OC)cc4c2cc1OC)C(O)C1CCCCN1C3` (stereo not drawn) [Compound 12], for which the selectivity ratio in the data set with SARS CoV [2] is over 7.1. The CC50 in the data set “in vitro” is over 100 nM. The IC50 in the data set on SARS CoV [3] is 14 nM.

With `COc1cc2c3c(c4cc(OC)c(OC)cc4c2cc1OC)C[N+]1([O-])CCCCC1C3` (stereo not drawn) [Compound 18], the selectivity ratio in the data set on SARS CoV [2] was over 56. For the same compound, the IC50 with SARS CoV [3] was under 100 nM.

Turning to `COc1cc2c3cc(OC)c(OC)cc3c3c[n+]4c(cc3c2cc1OC)CCCC4.[Br-]` [Compound 19], in the data set on SARS CoV [1], the “reduction of levels of CPEs caused” value is “effectively reduced”. Moreover, in the data set with Vero E6 cells, the “cytotoxicity per se (in words)” value is reported as “low cytotoxicity”.

Compound `COc1ccc2c3c(c4cc(OC)c(OC)cc4c2c1)CN1CCCC1C3OC(C)=O` (stereo not drawn) [Compound 32] displayed a melting point of 196 to 198 °C.
